According to ChEMBL document CHEMBL6083271 (J Med Chem, 2024):
Active and inactive are the calls of the source. The rule behind the calls is not given here.

Columns and labels:
[1] = tested on: RS4-11; test: Antitumor activity against human RS4;11 cells xenografted in female NOD-SCID mouse model assessed as median survival time at 25 mg/kg, iv qw (reference value: 47.5 days); type: functional
[2] = Upregulation of MDM2 mRNA level in human RS4;11 cells assessed as fold change at 10 nM measured after 3 hrs by qRT-PCR analysis; type: functional
[3] = Toxicity in female NOD-SCID mouse assessed as effect on body weight at 25 mg/kg, iv qd; type: organism-based; conditions: in vivo
[4] = tested on: OCI-AML-3; test: Antiproliferative activity against human OCI-AML-3 cells assessed as inhibition of cell growth measured after 4 days by WST-8 assay; type: functional, cell-based; conditions: OCI-AML-3, 96 h
[5] = tested on: RS4-11; test: Antitumor activity against human RS4;11 cells xenografted in female NOD-SCID mouse model assessed as tumor regression at 25 mg/kg, iv administered every other day for 2 weeks by vernier method relative to control; type: functional
[6] = Clearance in mouse at 10 mg/kg, iv; type: ADME, organism-based; conditions: in vivo
[7] = Volume of distribution at steady state in dog at 2.5 mg/kg, iv; type: ADME, organism-based, Canis lupus familiaris; conditions: in vivo, read-out: Vdss
[8] = tested on: MV4-11; test: Upregulation of p53 level in human MV4-11 cells at 1 to 3 nM measured after 2 hrs by Western blot analysis; type: functional, cell-based; conditions: dose 1-3 nM
[9] = tested on: RS4-11; test: Downregulation of MDM2 protein level in human RS4;11 cells at 3 nM measured after 2 hrs in presence of lenalidomide by Western blot analysis; type: functional, cell-based
[10] = Upregulation of p21 mRNA level in human MV4-11 cells assessed as fold increase at 30 nM by qRT-PCR analysis; type: functional
[11] = AUC (0 to t) in dog at 2.5 mg/kg, iv; type: ADME, organism-based, Canis lupus familiaris; conditions: in vivo
[12] = Half life in dog at 2.5 mg/kg, iv; type: ADME, organism-based, Canis lupus familiaris; conditions: in vivo
[13] = tested on: RS4-11; test: Antiproliferative activity against human RS4;11 cells assessed as inhibition of cell growth measured after 4 days by WST-8 assay; type: functional, cell-based; conditions: RS4-11, 96 h
[14] = tested on: MV4-11; test: Downregulation of MDM2 level in human MV4-11 cells at 3 to 30 nM measured after 2 hrs by Western blot analysis; type: functional, cell-based; conditions: dose 3-30 nM
[15] = AUC (0 to t) in mouse at 10 mg/kg, iv; type: ADME, organism-based; conditions: in vivo
[16] = tested on: RS4-11; test: Antitumor activity against human RS4;11 cells xenografted in female NOD-SCID mouse model assessed as median survival time at 50 mg/kg, iv qw (reference value: 47.5 days); type: functional
[17] = tested on: MV4-11; test: Downregulation of MDM2 protein level in human MV4-11 cells at 3 nM measured after 2 hrs in presence of lenalidomide by Western blot analysis; type: functional, cell-based
[18] = Half life in rat at 5 mg/kg, iv; type: ADME, organism-based; conditions: in vivo
[19] = tested on: RS4-11; test: Upregulation of p53 level in human RS4;11 cells harbouring wild type p53 at 1 to 3 nM measured after 2 hrs by Western blot analysis; type: functional, cell-based; conditions: dose 1-3 nM
[20] = tested on: RS4-11; test: Antitumor activity against human RS4;11 cells xenografted in female NOD-SCID mouse model assessed as tumor regression at 25 mg/kg, iv measured upto 34 days by vernier method relative to control; type: functional; conditions: time <= 34 day
[21] = tested on: MV4-11; test: Antiproliferative activity against human MV4-11 cells assessed as inhibition of cell growth measured after 4 days in presence of lenalidomide by WST-8 assay; type: functional, cell-based; conditions: time 4.0 day
[22] = Upregulation of PUMA mRNA level in human MV4-11 cells assessed as fold increase at 30 nM by qRT-PCR analysis; type: functional
[23] = tested on: MV4-11; test: Antiproliferative activity against human MV4-11 cells assessed as inhibition of cell growth measured after 4 days by WST-8 assay; type: functional, cell-based; conditions: MV4-11, 96 h
[24] = Volume of distribution at steady state in rat at 5 mg/kg, iv; type: ADME, organism-based; conditions: in vivo, read-out: Vdss
[25] = tested on: RS4-11; test: Antiproliferative activity against human RS4;11 cells assessed as inhibition of cell growth measured after 4 days in presence of lenalidomide by WST-8 assay; type: functional, cell-based; conditions: time 4.0 day
[26] = Volume of distribution at steady state in mouse at 10 mg/kg, iv; type: ADME, organism-based; conditions: in vivo, read-out: Vdss
[27] = Clearance in rat at 5 mg/kg, iv; type: ADME, organism-based; conditions: in vivo
[28] = Clearance in dog at 2.5 mg/kg, iv; type: ADME, organism-based, Canis lupus familiaris; conditions: in vivo
[29] = tested on: ML-2; test: Antiproliferative activity against human ML-2 cells assessed as inhibition of cell growth measured after 4 days by WST-8 assay; type: functional, cell-based; conditions: ML-2, 96 h
[30] = tested on: OCI-AML-5; test: Antiproliferative activity against human OCI-AML5 cells assessed as inhibition of cell growth measured after 4 days by WST-8 assay; type: functional, cell-based; conditions: OCI-AML-5, 96 h
[31] = tested on: RS4-11; test: Effect of p53 mRNA level in human RS4;11 cells at 10 nM by qRT-PCR analysis; type: functional, cell-based
[32] = Upregulation of p21 mRNA level in human RS4;11 cells assessed as fold change at 10 nM measured after 3 hrs by qRT-PCR analysis; type: functional
[33] = tested on: MV4-11; test: Upregulation of p53 protein level in human MV4-11 cells at 3 nM measured after 2 hrs in presence of lenalidomide by Western blot analysis; type: functional, cell-based
[34] = tested on: OCI-AML2; test: Antiproliferative activity against human OCI-AML2 cells assessed as inhibition of cell growth measured after 4 days by WST-8 assay; type: functional, cell-based; conditions: OCI-AML2, 96 h
[35] = tested on: MOLM-13; test: Antiproliferative activity against human MOLM-13 cells assessed as inhibition of cell growth measured after 4 days by WST-8 assay; type: functional, cell-based; conditions: MOLM-13, 96 h
[36] = tested on: MV4-11; test: Effect on p53 mRNA level in human MV4-11 cells at 30 nM by qRT-PCR analysis; type: functional, cell-based
[37] = AUC (0 to t) in rat at 5 mg/kg, iv; type: ADME, organism-based; conditions: in vivo
[38] = tested on: RS4-11; test: Upregulation of p53 protein level in human RS4;11 cells at 3 nM measured after 2 hrs in presence of lenalidomide by Western blot analysis; type: functional, cell-based
[39] = tested on: RS4-11; test: Downregulation of MDM2 level in human RS4;11 cells at 1 nM measured after 2 hrs by Western blot analysis; type: functional, cell-based
[40] = Half life in mouse at 10 mg/kg, iv; type: ADME, organism-based; conditions: in vivo
[41] = tested on: MOLM-14; test: Antiproliferative activity against human MOLM-14 cells assessed as inhibition of cell growth measured after 4 days by WST-8 assay; type: functional, cell-based; conditions: MOLM-14, 96 h
[42] = tested on: SIG-M5; test: Antiproliferative activity against human SIG-M5 cells assessed as inhibition of cell growth measured after 4 days by WST-8 assay; type: functional, cell-based; conditions: SIG-M5, 96 h
[43] = tested on: RS4-11; test: Antitumor activity against human RS4;11 cells xenografted in female NOD-SCID mouse model assessed as reduction in tumor size at 25 mg/kg, iv administered every other day for 2 weeks by vernier method relative to control; type: functional; design: scale not given: the % may be the effect or the level left
[44] = Upregulation of PUMA mRNA level in human RS4;11 cells assessed as fold change at 10 nM measured after 3 hrs by qRT-PCR analysis; type: functional
[45] = tested on: RS4-11; test: Antiproliferative activity against human RS4;11 cells harbouring p53 mutant assessed as inhibition of cell growth measured after 4 days by WST-8 assay; type: functional, cell-based; conditions: RS4-11, 96 h
[46] = tested on: RS4-11; test: Antiproliferative activity against human RS4;11 cells harbouring p53 wild type assessed as inhibition of cell growth measured after 4 days by WST-8 assay; type: functional, cell-based; conditions: RS4-11, 96 h
[47] = tested on: RS4-11; test: Antitumor activity against human RS4;11 cells xenografted in SCID mouse model assessed as tumor regression at 50 mg/kg, iv qd administered every other for 2 weeks and measured upto 30 days by caliper method relative to control; type: functional; conditions: time <= 30 day

Question: Which results are given for `O=C1CCC(N2Cc3c(C#CC4CCN(C(=O)[C@H]5CC[C@H](NC(=O)[C@@H]6NC7(CCCCC7)[C@@]7(C(=O)Nc8cc(Cl)ccc87)[C@H]6c6cccc(Cl)c6F)CC5)CC4)cccc3C2=O)C(=O)N1` (stereo partly specified)?
Answer: MST [1]: 78.5 days; fold change (FC) [2]: 8; Activity [3]: Non-toxic; IC50 [4]: 212 nM; Activity [5]: 100%; clearance [6]: 1.1 mL/min/kg; Vd [7]: 0.93 L/kg; Activity [8]: Active; Activity [9]: inactive; fold change (FC) [10]: 10; AUC(0-t) [11]: 5500 ng·h/mL; half-life [12]: 6.3 h; IC50 [13]: 0.7 nM; Activity [14]: Active; AUC(0-t) [15]: 156000 ng·h/mL; MST [16]: 72 days; Activity [17]: inactive; half-life [18]: 5.6 h; Activity [19]: Active; Activity [20]: 100%; Activity [21]: inactive; fold change (FC) [22]: 3; IC50 [23]: 2 nM; Vd [24]: 0.15 L/kg; Activity [25]: inactive; Vd [26]: 0.54 L/kg; clearance [27]: 3.2 mL/min/kg; clearance [28]: 7.4 mL/min/kg; IC50 [29]: 1.2 nM; IC50 [30]: 23 nM; Activity [31]: inactive; fold change (FC) [32]: 8; Activity [33]: inactive; IC50 [34]: 24 nM; IC50 [35]: 5.7 nM; Activity [36]: inactive; AUC(0-t) [37]: 13000 ng·h/mL; Activity [38]: inactive; Activity [39]: Active; half-life [40]: 6.1 h; IC50 [41]: 7.6 nM; IC50 [42]: 20 nM; Activity [43]: >70%; fold change (FC) [44]: 8

Question: For `O=C1CCC(N2Cc3c(C#CC4CCN(C(=O)c5ccc(NC(=O)[C@@H]6NC7(CCCCC7)[C@@]7(C(=O)Nc8cc(Cl)ccc87)[C@H]6c6cccc(Cl)c6F)cc5)CC4)cccc3C2=O)C(=O)N1` (stereo partly specified), which IC50 [4] is on record?
Answer: Its IC50 is 7750 nM.

Question: And the IC50 [45]?
Answer: Its IC50 is 50 nM.

Question: And the IC50 [13]?
Answer: Its IC50 is 3 nM.

Question: And the IC50 [23]?
Answer: The IC50 was 14 nM.

Question: What about the IC50 [29] of the same molecule?
Answer: The IC50 was 11 nM.

Question: And the IC50 [30]?
Answer: The IC50 was 148 nM.

Question: What about the IC50 [34] of the same molecule?
Answer: The IC50 was 113 nM.

Question: And the IC50 [35]?
Answer: Its IC50 is 37 nM.

Question: And the IC50 [46]?
Answer: Its IC50 is 4 nM.

Question: And the Activity [47]?
Answer: Its Activity is 100%.

Question: And the IC50 [41]?
Answer: The IC50 was 76 nM.

Question: And the IC50 [42]?
Answer: Its IC50 is 103 nM.
